In one series the target is SYK (Homo sapiens, UniProt P43405). The experiment in a line: Kinome profiling SYK. The series is classed as biochemical. The conditions noted are these: read-out: Inhibitory activity SYK; for inhibition at 0.1 µM: 100 nM. On the procedure:
(§1) . The kinome-wide selectivity was determined following the methods previously reported by Mohedas et al., ACS Chem Biol 2013, 8, 1291-1302 and Sanvitale et al., PLoS One 2013, 8, e62721.

A further series has as its target T1, EPHB3 (Homo sapiens, UniProt P54753).
T1 sequence (P54753 34-998): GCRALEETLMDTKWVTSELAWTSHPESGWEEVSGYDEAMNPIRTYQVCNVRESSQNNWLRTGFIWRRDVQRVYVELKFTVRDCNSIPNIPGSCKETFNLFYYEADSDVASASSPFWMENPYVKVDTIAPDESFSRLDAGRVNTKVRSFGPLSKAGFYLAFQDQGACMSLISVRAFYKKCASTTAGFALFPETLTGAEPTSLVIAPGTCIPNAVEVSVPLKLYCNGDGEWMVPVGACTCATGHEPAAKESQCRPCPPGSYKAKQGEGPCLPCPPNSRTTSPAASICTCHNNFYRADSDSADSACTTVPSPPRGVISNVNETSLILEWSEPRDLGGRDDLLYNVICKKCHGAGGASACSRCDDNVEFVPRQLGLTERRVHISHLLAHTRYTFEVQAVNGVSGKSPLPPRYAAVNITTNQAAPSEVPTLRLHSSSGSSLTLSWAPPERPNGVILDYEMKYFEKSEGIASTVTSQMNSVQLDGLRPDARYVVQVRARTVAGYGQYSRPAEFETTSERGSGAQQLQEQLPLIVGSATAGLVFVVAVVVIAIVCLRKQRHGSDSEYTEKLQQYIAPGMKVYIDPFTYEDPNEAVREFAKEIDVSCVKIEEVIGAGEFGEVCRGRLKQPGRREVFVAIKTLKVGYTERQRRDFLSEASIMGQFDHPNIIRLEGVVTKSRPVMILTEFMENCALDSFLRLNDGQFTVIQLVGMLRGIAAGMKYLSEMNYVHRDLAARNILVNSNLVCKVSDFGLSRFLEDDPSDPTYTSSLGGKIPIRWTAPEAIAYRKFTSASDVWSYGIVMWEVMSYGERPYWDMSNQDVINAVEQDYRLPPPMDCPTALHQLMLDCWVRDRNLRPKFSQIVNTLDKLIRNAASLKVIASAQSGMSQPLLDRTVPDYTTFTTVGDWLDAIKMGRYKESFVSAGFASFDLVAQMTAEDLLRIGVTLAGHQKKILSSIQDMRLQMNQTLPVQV
Put plainly: Kinome profiling EPHB3. The series is classed as biochemical. The conditions noted are these: read-out: Inhibitory activity EPHB3; for inhibition at 0.1 µM: 100 nM. On the procedure: as §1

The next series has as its target T2, P38δ (Homo sapiens, UniProt O15264).
T2 sequence (O15264 1-365): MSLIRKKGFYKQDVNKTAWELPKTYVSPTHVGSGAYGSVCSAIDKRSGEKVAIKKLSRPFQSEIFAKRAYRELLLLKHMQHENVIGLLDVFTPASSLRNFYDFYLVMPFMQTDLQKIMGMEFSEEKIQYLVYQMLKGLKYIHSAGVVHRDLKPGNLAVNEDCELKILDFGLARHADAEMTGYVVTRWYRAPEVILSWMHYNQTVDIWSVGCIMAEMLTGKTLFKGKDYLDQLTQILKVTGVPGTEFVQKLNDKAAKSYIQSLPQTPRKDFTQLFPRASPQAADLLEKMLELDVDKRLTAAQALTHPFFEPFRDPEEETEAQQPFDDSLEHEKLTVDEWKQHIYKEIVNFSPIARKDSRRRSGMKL
Put plainly: Kinome profiling P38δ. The series is classed as biochemical. The conditions noted are these: read-out: Inhibitory activity P38δ; for inhibition at 0.1 µM: 100 nM. The method, then:
as §1

A further series deals with CDK4/cyclinD (Homo sapiens, UniProt P11802). Put plainly: Kinome profiling CDK4/cyclinD. The series is classed as biochemical. To be noted: read-out: Inhibitory activity CDK4/cyclinD; for inhibition at 0.1 µM: 100 nM. On the procedure:
as §1

A further series has as its target LYNB (Homo sapiens, UniProt P07948). The experiment in a line: Kinome profiling LYNB. The series is classed as biochemical. To be noted: read-out: Inhibitory activity LYNB; for inhibition at 0.1 µM: 100 nM. On the procedure: as §1
In a further series the target is MAP4K4 (Homo sapiens, UniProt O95819). The experiment in a line: Kinome profiling MAP4K4. The conditions noted are these: for inhibition at 0.1 µM: 100 nM. The series is classed as biochemical. On the procedure:
as §1

The target in a further series is ABL1 (Homo sapiens, UniProt P00519). The experiment in a line: Kinome profiling ABL1. The conditions noted are these: for inhibition at 0.1 µM: 100 nM. The series is classed as biochemical. On the procedure: as §1
For series [1], the system named is HePG2 hepatocarcinoma cells. The series is classed as cell-based. The conditions noted are these: human.
Setting [2] is: Table 4, read-out: Inhibitory Activity MAP4K4.
[3] abbreviates: read-out: Inhibitory activity MAP4K4.
Where [4] appears, read: Table 4, read-out: Inhibitory Activity ABL1.
Where [5] appears, read: read-out: Inhibitory activity ABL1.

We go through two molecules from patent US20170190705A1, “Compositions and Methods for Inhibiting BMP” (THE BRIGHAM AND WOMAN'S HOSPITAL, INC., priority 2014, published 2017).

Read-outs that look alike come from different tables or passages of the source.

Sequence of ABL1 (P00519 whole entry): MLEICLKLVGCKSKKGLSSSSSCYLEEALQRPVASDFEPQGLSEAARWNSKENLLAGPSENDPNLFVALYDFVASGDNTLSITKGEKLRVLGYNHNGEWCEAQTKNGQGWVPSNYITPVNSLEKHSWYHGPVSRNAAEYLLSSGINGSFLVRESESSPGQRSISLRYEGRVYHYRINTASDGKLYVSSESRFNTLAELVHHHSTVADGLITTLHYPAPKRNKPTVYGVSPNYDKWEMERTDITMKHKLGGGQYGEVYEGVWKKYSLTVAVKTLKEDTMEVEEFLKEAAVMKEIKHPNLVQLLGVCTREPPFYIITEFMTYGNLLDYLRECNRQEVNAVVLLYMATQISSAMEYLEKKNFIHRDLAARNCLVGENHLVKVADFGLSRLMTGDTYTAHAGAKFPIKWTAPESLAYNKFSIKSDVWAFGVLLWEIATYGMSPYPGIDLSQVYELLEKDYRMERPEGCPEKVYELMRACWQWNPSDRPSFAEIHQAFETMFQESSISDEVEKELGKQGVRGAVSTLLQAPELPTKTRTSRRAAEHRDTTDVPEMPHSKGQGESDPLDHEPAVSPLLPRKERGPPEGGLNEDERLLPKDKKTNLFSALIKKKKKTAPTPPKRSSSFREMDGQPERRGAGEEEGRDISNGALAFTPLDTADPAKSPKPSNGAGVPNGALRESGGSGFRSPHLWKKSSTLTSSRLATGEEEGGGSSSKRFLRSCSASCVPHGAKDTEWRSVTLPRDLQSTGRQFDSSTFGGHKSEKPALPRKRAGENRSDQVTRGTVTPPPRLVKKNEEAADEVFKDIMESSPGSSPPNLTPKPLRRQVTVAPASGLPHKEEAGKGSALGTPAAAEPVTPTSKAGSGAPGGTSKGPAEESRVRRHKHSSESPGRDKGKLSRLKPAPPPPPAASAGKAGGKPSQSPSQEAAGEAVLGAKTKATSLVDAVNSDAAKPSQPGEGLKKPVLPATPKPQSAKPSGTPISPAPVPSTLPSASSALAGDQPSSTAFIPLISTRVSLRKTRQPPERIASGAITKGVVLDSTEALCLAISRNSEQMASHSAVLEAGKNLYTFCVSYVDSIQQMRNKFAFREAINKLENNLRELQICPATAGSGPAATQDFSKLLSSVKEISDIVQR
Sequence of CDK4/cyclinD (P11802 whole entry): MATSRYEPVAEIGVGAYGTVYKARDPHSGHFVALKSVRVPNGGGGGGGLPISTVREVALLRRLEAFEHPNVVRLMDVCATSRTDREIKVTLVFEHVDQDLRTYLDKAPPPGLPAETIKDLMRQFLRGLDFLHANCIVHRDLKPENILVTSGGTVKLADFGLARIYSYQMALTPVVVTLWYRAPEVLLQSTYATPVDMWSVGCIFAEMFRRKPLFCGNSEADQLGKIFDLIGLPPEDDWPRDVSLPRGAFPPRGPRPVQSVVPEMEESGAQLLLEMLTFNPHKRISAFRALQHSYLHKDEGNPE
Sequence of CDK4/cyclinD (P24385 whole entry partner): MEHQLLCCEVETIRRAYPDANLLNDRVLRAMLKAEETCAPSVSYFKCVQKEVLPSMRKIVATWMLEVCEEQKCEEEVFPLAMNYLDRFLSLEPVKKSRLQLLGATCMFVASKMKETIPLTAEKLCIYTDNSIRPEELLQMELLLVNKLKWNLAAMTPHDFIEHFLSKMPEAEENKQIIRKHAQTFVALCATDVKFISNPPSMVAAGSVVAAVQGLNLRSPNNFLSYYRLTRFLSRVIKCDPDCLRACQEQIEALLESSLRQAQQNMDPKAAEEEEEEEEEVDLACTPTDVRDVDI
Sequence of MAP4K4 (O95819 whole entry): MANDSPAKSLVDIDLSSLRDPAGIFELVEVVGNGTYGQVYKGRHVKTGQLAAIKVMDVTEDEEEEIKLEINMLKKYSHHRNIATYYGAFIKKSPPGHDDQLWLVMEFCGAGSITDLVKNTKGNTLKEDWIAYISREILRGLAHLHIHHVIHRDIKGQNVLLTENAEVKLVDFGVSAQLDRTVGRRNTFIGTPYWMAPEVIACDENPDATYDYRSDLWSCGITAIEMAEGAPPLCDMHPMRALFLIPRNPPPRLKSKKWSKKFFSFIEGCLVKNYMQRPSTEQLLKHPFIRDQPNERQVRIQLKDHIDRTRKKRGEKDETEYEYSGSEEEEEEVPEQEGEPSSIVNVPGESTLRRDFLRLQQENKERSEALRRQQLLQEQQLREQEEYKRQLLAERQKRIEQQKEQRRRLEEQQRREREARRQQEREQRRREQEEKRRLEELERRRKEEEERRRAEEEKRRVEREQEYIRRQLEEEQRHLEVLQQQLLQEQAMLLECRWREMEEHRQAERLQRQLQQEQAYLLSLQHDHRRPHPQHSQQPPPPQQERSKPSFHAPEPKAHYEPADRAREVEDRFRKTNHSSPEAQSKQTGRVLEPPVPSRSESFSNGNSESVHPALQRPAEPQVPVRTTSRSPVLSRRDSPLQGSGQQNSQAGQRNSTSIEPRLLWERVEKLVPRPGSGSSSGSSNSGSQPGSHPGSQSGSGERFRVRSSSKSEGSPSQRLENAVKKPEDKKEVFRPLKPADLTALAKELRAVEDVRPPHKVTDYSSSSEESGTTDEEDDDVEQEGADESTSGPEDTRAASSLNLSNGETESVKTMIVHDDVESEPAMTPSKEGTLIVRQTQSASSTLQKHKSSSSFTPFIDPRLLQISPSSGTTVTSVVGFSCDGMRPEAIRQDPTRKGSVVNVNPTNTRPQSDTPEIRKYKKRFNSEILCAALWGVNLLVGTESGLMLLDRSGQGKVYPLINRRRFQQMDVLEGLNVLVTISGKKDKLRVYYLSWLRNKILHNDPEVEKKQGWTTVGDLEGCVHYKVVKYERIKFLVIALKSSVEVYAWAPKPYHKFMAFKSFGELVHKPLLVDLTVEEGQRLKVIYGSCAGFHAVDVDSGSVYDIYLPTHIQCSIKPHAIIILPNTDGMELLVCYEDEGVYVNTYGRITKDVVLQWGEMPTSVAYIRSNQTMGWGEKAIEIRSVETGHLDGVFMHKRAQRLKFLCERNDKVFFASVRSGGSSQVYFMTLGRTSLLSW
Sequence of LYNB (P07948 1-491 isoform P07948-2): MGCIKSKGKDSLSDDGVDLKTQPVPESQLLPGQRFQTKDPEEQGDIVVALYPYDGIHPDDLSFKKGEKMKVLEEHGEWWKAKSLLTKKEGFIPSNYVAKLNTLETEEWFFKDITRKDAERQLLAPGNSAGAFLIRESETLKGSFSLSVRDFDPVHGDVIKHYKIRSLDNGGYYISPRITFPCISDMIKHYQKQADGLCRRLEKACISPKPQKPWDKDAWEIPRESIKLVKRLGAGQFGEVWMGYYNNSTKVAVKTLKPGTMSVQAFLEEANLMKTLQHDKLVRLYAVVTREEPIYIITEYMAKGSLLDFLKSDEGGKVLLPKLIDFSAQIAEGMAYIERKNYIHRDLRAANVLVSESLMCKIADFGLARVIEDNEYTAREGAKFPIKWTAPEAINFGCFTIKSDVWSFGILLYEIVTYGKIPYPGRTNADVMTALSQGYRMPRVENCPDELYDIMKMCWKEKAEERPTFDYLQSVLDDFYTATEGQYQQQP

Consider `COc1cc(-c2cc(-c3ccc(N4CCNCC4)cc3)cnc2C)cc(OC)c1OC` [Compound 10, 1-(4-(6-methyl-5-(3,4,5-trimethoxyphenyl)pyridin-3-yl)phenyl)piperazine], for which the inhibition at 0.1 µM on SYK is 0%; at EPHB3 it was 1%; on P38δ it was 1%; on CDK4/cyclinD it was -3%; at LYNB it was 8%; on MAP4K4 (setting [2]), 34%. Further, the inhibition at 0.1 µM was found to be 34% on MAP4K4 (setting [3]), 56% at ABL1 (setting [4]) and 56% on ABL1 (setting [5]). Also, the inhibition at 1 µM on SYK was -1%; on EPHB3 it was 1%; at P38δ, -1%; on CDK4/cyclinD it was 2%; on LYNB, 30%; at MAP4K4 (setting [2]), 92%. In addition, the inhibition at 1 µM on MAP4K4 (setting [3]) came out at 92%; on ABL1 (setting [4]), 93%; at ABL1 (setting [5]), 93%. Further, the Cell viability in series [1] (4 h, 1 μM) was found to be 91%; in series [1] (4 h, 10 μM), 100%; in series [1] (4 h, 100 μM), 88%; in series [1] (24 h, 1 μM) it was 92%; in series [1] (24 h, 10 μM), 78%; in series [1] (24 h, 100 μM), 77%.
On to `COc1cc(-c2cc(-c3ccc(N4CCNCC4)cc3)cnc2N)cc(OC)c1OC` [Compound 15, 5-(4-(piperazin-1-yl)phenyl)-3-(3,4,5-trimethoxyphenyl)pyridin-2-amine], for which the inhibition at 0.1 µM stood at 1% at SYK; 5% on EPHB3; 2% on P38δ; 1% on CDK4/cyclinD; 35% on LYNB; 77% on MAP4K4 (setting [3]). Also, the inhibition at 0.1 µM on ABL1 (setting [5]) was determined as 77%. Besides, the inhibition at 1 µM on SYK is -4%; at EPHB3, 7%; at P38δ, 1%; at CDK4/cyclinD, 3%; at LYNB, 82%; at MAP4K4 (setting [3]), 90%. In addition, the inhibition at 1 µM on ABL1 (setting [5]) came out at 84%. Also, the Cell viability in series [1] (4 h, 1 μM) is listed as 95%; in series [1] (4 h, 10 μM) it was 103%; in series [1] (4 h, 100 μM), 103%; in series [1] (24 h, 1 μM), 96%; in series [1] (24 h, 10 μM), 96%; in series [1] (24 h, 100 μM) it was 23%.
